Drawing on patent US12247011B2, “Selective inhibitors of NLRP3 inflammasome” (NodThera Limited, priority 2017, dated 2025), this text covers IC50 for 32 compounds.

Some results are limits rather than exact numbers.

The experiment relates to IL-1β release upon NLRP3 activation in peripheral blood mononuclear cells (PBMC). The experiment can be described thus: PBMC IC50 Determination Assay. It is filed as cell-based. Particulars: Homo sapiens; LPS-primed PBMC, 30 min compound, stimulated with ATP (5 mM) or nigericin (10 μM) for 1 h; IL-1β ELISA; read-out: PBMC IC50. Here is the method:
PBMC IC50 Determination Assay
The compounds of the present disclosure were tested for their inhibitory activity against IL-1β release upon NLRP3 activation in peripheral blood mononuclear cells (PBMC).
Isolated cells were seeded into the wells of a 96-well plate and incubated for 3 h with lipopolysaccharide (LPS). Following medium exchange, the compounds of the present disclosure were added (a single compound per well) and the cells were incubated for 30 min. Next, the cells were stimulated either with ATP (5 mM) or nigericin (10 μM) for 1 h and the cell culture media from the wells were collected for further analysis.
The release of IL-1β into the media was determined by a quantitative detection of IL-1β in the media using an IL-1β enzyme-linked immunosorbent assay (ELISA) Ready-SET-Go!, eBioscience cat. […] Subsequently, plates were blocked with blocking buffer for 1 h at room temperature (rt) and after washing with a buffer (PBS with 0.05% Tween-20) incubated with protein standard and culture media. […] Plates were washed and incubated with HRP-streptavidin for 30 min at rt and washed again. The signal was developed after addition of 3,3,5,5-tetramethylbenzidine-peroxidase (TMB) until colour appeared and the reaction was stopped by 2 M H2SO4. A microplate spectrophotometer (BioTek) was used to detect signals with 450 nm. The detection range of IL-1β ELISA was 2-150 ng/ml.
With `CC(C)OC(=O)COC(=O)Nc1c2c(cc3c1CCC3)CCC2` [Compound 20, Propan-2-yl 2-{[(1,2,3,5,6,7-hexahydro-s-indacen-4-yl)carbamoyl]oxy}acetate], the IC50 fell in the range of 0.1 to 1 µM.
`CCCOC(=O)COC(=O)Nc1c2c(cc3c1CCC3)CCC2` [Compound 21]: the IC50 was in the range of 0.1 to 1 µM.
In the case of `O=C(COC(=O)Nc1c2c(cc3c1CCC3)CCC2)OCC1CC1` [Compound 22, Cyclopropylmethyl 2-{[(1,2,3,5,6,7-hexahydro-s-indacen-4-yl)carbamoyl]oxy}acetate], the IC50 is 0.1 to 1 µM.
The figure for `O=C(COC(=O)Nc1c2c(cc3c1CCC3)CCC2)OC1CCC1` [Compound 23, Cyclobutyl 2-{[(1,2,3,5,6,7-hexahydro-s-indacen-4-yl)carbamoyl]oxy}acetate] is 0.1 to 1 µM.
Next, `CC(C)COC(=O)COC(=O)Nc1c2c(cc3c1CCC3)CCC2` [Compound 24, 2-methylpropyl 2-{[(1,2,3,5,6,7-hexahydro-s-indacen-4-yl)carbamoyl]oxy}acetate]: 0.1 to 1 µM; `CCOC(=O)[C@@H](Cc1ccc(C#N)cc1)OC(=O)Nc1c2c(cc3c1CCC3)CCC2` [Compound 25, Ethyl 3-(4-cyanophenyl)-2-{[(1,2,3,5,6,7-hexahydro-s-indacen-4-yl)carbamoyl]oxy}propanoate]: 0.1 to 1 µM; `O=C(O)COC(=O)Nc1c2c(cc3c1CCC3)CCC2` [Compound 27, 2-{[(1,2,3,5,6,7-Hexahydro-s-indacen-4-yl)carbamoyl]oxy}acetic acid]: 1 to 10 µM.
On to `CCOC(=O)COC(=O)Nc1c(CC)cc(C)cc1CC` [Compound 28, Ethyl 2-{[(2,6-diethyl-4-methylphenyl)carbamoyl]oxy}acetate], for which the IC50 was 1 to 10 µM.
With `COC(=O)COC(=O)Nc1c2c(cc3c1CCC3)CCC2` [Compound 29, Methyl 2-{[(1,2,3,5,6,7-hexahydro-s-indacen-4-yl)carbamoyl]oxy}acetate], the IC50 lay in the range of 1 to 10 µM.
As for `CCOC(=O)[C@@H](CCc1ccccc1)OC(=O)Nc1c2c(cc3c1CCC3)CCC2` [Compound 30, Ethyl (2R)-2-{[(1,2,3,5,6,7-hexahydro-s-indacen-4-yl)carbamoyl]oxy}-4-phenylbutanoate], the IC50 fell in the range of 0.1 to 1 µM.
For the compound `O=C(COC(=O)Nc1c2c(cc3c1CCC3)CCC2)OC1CCCC1` [Compound 32, Cyclopentyl 2-{[(1,2,3,5,6,7-hexahydro-s-indacen-4-yl)carbamoyl]oxy}acetate], the IC50 lay within 0.1 to 1 µM.
Regarding `CCOC(=O)C(Cn1ccnc1)OC(=O)Nc1c2c(cc3c1CCC3)CCC2` (centres unmarked) [Compound 33, Ethyl 2-{[(1,2,3,5,6,7-hexahydro-s-indacen-4-yl)carbamoyl]oxy}-3-(1H-imidazol-1-yl)propanoate], the half-maximal inhibitory concentration (IC50) fell in the range of 0.1 to 1 µM.
On to `CCOC(=O)COC(=O)Nc1c(C(C)C)cccc1C(C)C` [Compound 34, Ethyl 2-({[2,6-bis(propan-2-yl)phenyl]carbamoyl}oxy)acetate], for which the IC50 was in the range of 1 to 10 µM.
The figure for `CCOC(=O)COC(=O)Nc1cc(C(F)(F)F)ccc1Cl` [Compound 35, Ethyl 2-({[2-chloro-5-(trifluoromethyl)phenyl]carbamoyl}oxy)acetate] is > 10 µM.
Next, `CCOC(=O)COC(=O)Nc1cc(C)ccc1C` [Compound 37, Ethyl 2-{[(2,5-dimethylphenyl)carbamoyl]oxy}acetate]: 0.1 to 1 µM; `COCC(OC(=O)Nc1c2c(cc3c1CCC3)CCC2)C(=O)O` (centres unmarked) [Compound 38, 2-{[(1,2,3,5,6,7-hexahydro-s-indacen-4-yl)carbamoyl]oxy}-3-methoxypropanoic acid]: 1 to 10 µM.
Next, `O=C(COC(=O)Nc1c2c(cc3c1CCC3)CCC2)OC1CC1` [Compound 39, cyclopropyl 2-{[(1,2,3,5,6,7-hexahydro-s-indacen-4-yl)carbamoyl]oxy}acetate]: 1 to 10 µM; `O=C(Nc1c2c(cc3c1CCC3)CCC2)OC(Cn1cccn1)C(=O)O` (centres unmarked) [Compound 40, 2-{[(1,2,3,5,6,7-hexahydro-s-indacen-4-yl)carbamoyl]oxy}-3-(1H-pyrazol-1-yl)propanoic acid]: 0.1 to 1 µM.
For the compound `CCOC(=O)[C@@H](Cc1cccc(C#N)c1)OC(=O)Nc1c2c(cc3c1CCC3)CCC2` [Compound 41, Ethyl (2R)-3-(3-cyanophenyl)-2-{[(1,2,3,5,6,7-hexahydro-s-indacen-4-yl)carbamoyl]oxy}propanoate], the IC50 was 0.01 to 0.1 µM.
With `CCOC(=O)C(Cc1cccc(-n2cccn2)c1)OC(=O)Nc1c2c(cc3c1CCC3)CCC2` (centres unmarked) [Compound 42, Ethyl 2-{[(1,2,3,5,6,7-hexahydro-s-indacen-4-yl)carbamoyl]oxy}-3-[3-(1H-pyrazol-1-yl)phenyl]propanoate], the IC50 lay in the range of 0.1 to 1 µM.
As to `CCOC(=O)[C@@H](Cc1cccc(-n2cccn2)c1)OC(=O)Nc1c2c(cc3c1CCC3)CCC2` [Compound 43, Ethyl (2R)-2-{[(1,2,3,5,6,7-hexahydro-s-indacen-4-yl)carbamoyl]oxy}-3-[3-(1H-pyrazol-1-yl)phenyl]propanoate], the IC50 lay within 0.1 to 1 µM.
Next, `CCOC(=O)C(Cn1cccn1)OC(=O)Nc1c(F)cccc1F` (centres unmarked) [Compound 44]: 0.1 to 1 µM.
`CCOC(=O)C(Cn1cccn1)OC(=O)Nc1ccccc1` (centres unmarked) [Compound 45, Ethyl 2-[(phenylcarbamoyl)oxy]-3-(1H-pyrazol-1-yl)propanoate]: the IC50 is > 10 µM.
For the compound `CCOC(=O)C(Cn1cccn1)OC(=O)Nc1c(C)cccc1CC` (centres unmarked) [Compound 46, Ethyl 2-{[(2-ethyl-6-methylphenyl)carbamoyl]oxy}-3-(1H-pyrazol-1-yl)propanoate], the IC50 was in the range of 0.1 to 1 µM.
For the compound `CCOC(=O)C(Cn1cccn1)OC(=O)Nc1c(CC)cccc1CC` (centres unmarked) [Compound 48, Ethyl 2-{[(2,6-diethylphenyl)carbamoyl]oxy}-3-(1H-pyrazol-1-yl)propanoate], the IC50 lay within 0.1 to 1 µM.
The figure for `CCOC(=O)C(Cn1cccn1)OC(=O)Nc1c(C)cccc1F` (centres unmarked) [Compound 49, Ethyl 2-{[(2-fluoro-6-methylphenyl)carbamoyl]oxy}-3-(1H-pyrazol-1-yl)propanoate] is 0.1 to 1 µM; for `CCOC(=O)C(Cn1cccn1)OC(=O)Nc1c(F)cccc1Cl` (centres unmarked) [Compound 50, Ethyl 2-{[(2-chloro-6-fluorophenyl)carbamoyl]oxy}-3-(1H-pyrazol-1-yl)propanoate] it is 0.1 to 1 µM.
The figure for `CCOC(=O)C(Cn1cccn1)OC(=O)Nc1c(C)cccc1Cl` (centres unmarked) [Compound 51, Ethyl 2-{[(2-chloro-6-methylphenyl)carbamoyl]oxy}-3-(1H-pyrazol-1-yl)propanoate] is 1 to 10 µM.
As for `CCOC(=O)C(Cn1cccn1)OC(=O)Nc1c(Cl)cccc1Cl` (centres unmarked) [Compound 52, Ethyl 2-{[(2,6-dichlorophenyl)carbamoyl]oxy}-3-(1H-pyrazol-1-yl)propanoate], the IC50 was 1 to 10 µM.
For the compound `CCOC(=O)C(Cn1cccn1)OC(=O)NC1CCCCC1` (centres unmarked) [Compound 53, ethyl 2-[(cyclohexylcarbamoyl)oxy]-3-(1H-pyrazol-1-yl)-propanoate], the IC50 was 1 to 10 µM.
Turning to `CCOC(=O)C(Cn1cccn1)OC(=O)NC1CCCC1` (centres unmarked) [Compound 54, Ethyl 2-[(cyclopentylcarbamoyl)oxy]-3-(1H-pyrazol-1-yl)propanoate], the half-inhibitory concentration (IC50) was in the range of 1 to 10 µM.
Consider `CCOC(=O)C(Cn1cccn1)OC(=O)NC1CCCCCC1` (centres unmarked) [Compound 56, Ethyl 2-[(cycloheptylcarbamoyl)oxy]-3-(1H-pyrazol-1-yl)propanoate], for which the IC50 is > 10 µM.
